# According to the supplement of paper PMC10307832:
# Experiments:
# Assay in all cases: relative viability (nuclei count vs DMSO), 5 days (fraction); higher = more cells survive
# [1] = compound: O=c1ncccn1[C@@H]1O[C@H](CO)[C@@H](O)[C@H]1O [Zebularine] + C[C@@H](Oc1cc(-c2cnn(C3CCNCC3)c2)cnc1N)c1c(Cl)ccc(F)c1Cl [Crizotinib] (partner 1 µM)
# Method in brief: (§1)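 Lung cancer cell lines in 1536-well plates were dosed by pin tool the day after seeding, either with one drug alone or with a fixed anchor-drug dose plus five library-drug doses (not always all listed) in √10 steps. After 5 days, cells were fixed and their nuclei stained in one step (final 0.05% Triton X-100, 1% formaldehyde, 1 ug/ml Hoechst), then counted on 4× images. Relative viability is the nuclei count in treated wells divided by that in vehicle wells. Values are medians of duplicate plates.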
# [2] = compound: CC(C)CCN1c2nc(Nc3cc(F)c(O)c(F)c3)ncc2N(C)C(=O)C1C [BI-D1870] + Nc1ncn([C@H]2C[C@H](O)[C@@H](CO)O2)c(=O)n1 [Decitabine] (partner 2 µM)
# Method in brief: as §1
# [3] = compound: O=c1ncccn1[C@@H]1O[C@H](CO)[C@@H](O)[C@H]1O [Zebularine] + CC(=O)Nc1cccc(-n2c(=O)n(C3CC3)c(=O)c3c(Nc4ccc(I)cc4F)n(C)c(=O)c(C)c32)c1 [Trametinib] (partner 0.02 µM)
# Method in brief: as §1
# [4] = compound: CC(C)CCN1c2nc(Nc3cc(F)c(O)c(F)c3)ncc2N(C)C(=O)C1C [BI-D1870] + CS(=O)(=O)N1CCN(Cc2cc3nc(-c4cccc5[nH]ncc45)nc(N4CCOCC4)c3s2)CC1 [Pictilisib] (partner 1 µM)
# Method in brief: as §1
cell line,measurement,setting,value
UMC-11,relative viability,[1]; first compound 1 µM,0.666
same,relative viability,[1]; first compound 3.162 µM,0.489
same,relative viability,[1]; first compound 10 µM,0.397
same,relative viability,[1]; first compound 31.62 µM,0.374
same,relative viability,[1]; first compound 100 µM,0.343
same,relative viability,[2]; first compound 0.04 µM,0.581
same,relative viability,[2]; first compound 0.1265 µM,0.466
same,relative viability,[2]; first compound 0.4 µM,0.669
same,relative viability,[2]; first compound 1.265 µM,0.674
same,relative viability,[2]; first compound 4 µM,0.622
same,relative viability,[3]; first compound 1 µM,0.709
same,relative viability,[3]; first compound 3.162 µM,0.754
same,relative viability,[3]; first compound 10 µM,0.422
same,relative viability,[3]; first compound 31.62 µM,0.644
same,relative viability,[3]; first compound 100 µM,0.376
same,relative viability,[4]; first compound 0.04 µM,0.908
same,relative viability,[4]; first compound 0.1265 µM,0.608
same,relative viability,[4]; first compound 0.4 µM,0.759
same,relative viability,[4]; first compound 1.265 µM,0.733
same,relative viability,[4]; first compound 4 µM,0.316
